What is called IC50 is the concentration that inhibits the measured activity by half. A higher IC50 goes with weaker potency in that assay.

Where no end group is shown, it is not given here. Bounds are passed on as bounds.

The target of one assay is DRB1*0101 (DR1) (Homo sapiens, UniProt P01903+P01911, A100R/D57E/F55L/F60I/F76Y/I96L/L162R/M171V/P40L/Q125E/R42F/V115G/Y59C). In words: HLA class II binding assay, purified HLA molecules. As to conditions: Her2/neu DR supertype primary binding, Table XXVIII.
Another assay addresses A*2402 (Homo sapiens, UniProt P04439, D101N/D140Y/D185E/E176V/E190D/F33S/G103R/G107R/I119L/I121M/I306V/K335N/L105A/L180Q/L300P/N151K/N90K/Q86E/Q94H/R106L/R138H/R89G/T104I/T345S/V100E/W191G/Y123F). Briefly: HLA class I binding assay, purified HLA molecules. As to conditions: HLA-A24 Motif-Bearing Peptides, Table XXVI.
The target of another assay is DRB1*0701 (DR7) (Homo sapiens, UniProt P01903+P01911, A100R/A102G/A103Q/D57E/D86V/E43K/F76Y/K127E/L162R/M171V/P40G/Q125H/Q99D/R33Q/R42Y/R54Q/S133A/S66F/T210M/V115G/Y107V/Y59L/Y89S). In words: HLA class II binding assay, purified HLA molecules. Particulars: Her2/neu DR supertype primary binding, Table XXVIII.
In a further assay the target is A*0101 (Homo sapiens, UniProt P04439, A114D/A174V/A182V/D101N/D185E/E176A/E190D/L180R/Q94H/R68K/S129P/T187R/V100A/V91M/W191G). Briefly: HLA class I binding assay, purified HLA molecules, inhibition of 125I-radiolabeled probe peptide. As to conditions: HLA-A1 Motif-Bearing Peptides, Table XXV.
In a further assay the target is DRB1*0401 (DR4w4) (Homo sapiens, UniProt P01903+P01911, A100K/A169T/F76Y/I96L/K127E/L162R/M171V/N62H/P40V/Q125Y/R42H/S133A/S149N/S66Y/V115G/V209L/W38E). In words: HLA class II binding assay, purified HLA molecules. Particulars: Her2/neu DR supertype primary binding, Table XXVIII.

Regarding ITDFGLARLLDIDET [Her2/neu.861], the IC50 at DRB1*0101 (DR1) is 1040 nM.
LYISAWPDSL [Her2/neu.410] registered an IC50 at A*2402 of 143 nM.
For `CC[C@H](C)[C@H](NC(=O)[C@H](CCC(N)=O)NC(=O)[C@H](CCSC)NC(=O)[C@H](CS)NC(=O)[C@H](Cc1c[nH]c2ccccc12)NC(=O)[C@H](CC(N)=O)NC(=O)[C@H](CC(C)C)NC(=O)[C@@H](N)CC(C)C)C(=O)N[C@@H](C)C(=O)N[C@@H](CCCCN)C(=O)NCC(=O)N[C@@H](CCSC)C(=O)N[C@@H](CO)C(=O)N[C@@H](Cc1ccc(O)cc1)C(=O)N[C@@H](CC(C)C)C(=O)O` [Her2/neu.822], the IC50 at DRB1*0101 (DR1) came out at 6 nM; on DRB1*0701 (DR7), 208 nM.
On to `CC[C@H](C)[C@H](NC(=O)CNC(=O)[C@@H](NC(=O)[C@@H](NC(=O)[C@H](C)NC(=O)[C@H](CO)NC(=O)[C@@H](NC(=O)[C@@H](NC(=O)[C@H](CO)NC(=O)[C@@H](NC(=O)[C@@H](N)CC(C)C)[C@@H](C)O)[C@@H](C)CC)[C@@H](C)CC)C(C)C)C(C)C)C(=O)N[C@@H](CC(C)C)C(=O)N[C@@H](CC(C)C)C(=O)N[C@H](C(=O)N[C@H](C(=O)O)C(C)C)C(C)C` [Her2/neu.651], for which the IC50 at DRB1*0101 (DR1) came to 26 nM.
Take `CC[C@H](C)[C@H](NC(=O)CNC(=O)[C@@H](NC(=O)[C@@H](NC(=O)[C@H](C)NC(=O)[C@H](CO)NC(=O)[C@@H](NC(=O)[C@@H](NC(=O)[C@H](CO)NC(=O)[C@@H](NC(=O)[C@H](CC(C)C)NC(=O)[C@@H]1CCCN1C(=O)[C@H](CO)NC(=O)[C@H](C)N)[C@@H](C)O)[C@@H](C)CC)[C@@H](C)CC)C(C)C)C(C)C)C(=O)N[C@@H](CC(C)C)C(=O)O` [Her2/neu.648]: the IC50 at DRB1*0101 (DR1) was 56 nM.
With AYSLTLQGF [Her2/neu.440.F9], the IC50 on A*2402 is 52 nM.
At A*0101, ETMPNPEGRY [Her2/neu.280.T2] gave an IC50 of 3.9 nM.
The same measure, in the same setting: for ETHLDMLRHLY [Her2/neu.40] the value was 89 nM.
Take QPDVRPQPPSPREGP [Her2/neu.1142]: at DRB1*0101 (DR1), the IC50 stood at 7140 nM.
On A*2402, `CC[C@H](C)[C@H](NC(=O)[C@@H]1CCCN1C(=O)[C@H](CCSC)NC(=O)[C@H](Cc1ccc(O)cc1)NC(=O)[C@@H](N)CO)C(=O)N[C@@H](Cc1c[nH]c2ccccc12)C(=O)N[C@@H](CCCCN)C(=O)N[C@@H](Cc1ccccc1)C(=O)O` [Her2/neu.609] returned an IC50 of 38 nM.
ETELVEPLTPSGAMP [Her2/neu.693] registered an IC50 at DRB1*0101 (DR1) of 833 nM. This lies in the sub-micromolar range.
Regarding `CC[C@H](C)[C@H](NC(=O)[C@H](CCSC)NC(=O)[C@H](Cc1c[nH]c2ccccc12)NC(=O)[C@H](CS)NC(=O)[C@H](CCCCN)NC(=O)[C@@H](NC(=O)[C@H](CCSC)NC(=O)[C@@H](NC(=O)[C@H](CCSC)NC(=O)[C@H](Cc1ccc(O)cc1)NC(=O)[C@@H](NC(=O)[C@@H](N)CC(=O)O)C(C)C)[C@@H](C)CC)C(C)C)C(=O)N[C@@H](CC(=O)O)C(=O)N[C@@H](CO)C(=O)N[C@@H](CCC(=O)O)C(=O)O` [Her2/neu.950], the IC50 on DRB1*0401 (DR4w4) is 790 nM.
For the compound GTDMKLRLPY [Her2/neu.28.Y10], the IC50 on A*0101 was determined as 50 nM.
On to LYISAWPDSF [Her2/neu,410.F10], for which the IC50 at A*2402 was 10 nM.
Consider `CC(C)[C@H](N)C(=O)N[C@H](C(=O)N[C@@H](C)C(=O)N[C@@H](CS)C(=O)N1CCC[C@H]1C(=O)N[C@@H](Cc1ccc(O)cc1)C(=O)N[C@@H](CC(N)=O)C(=O)N[C@@H](Cc1ccc(O)cc1)C(=O)O)[C@@H](C)O` [Her2/neu.296], for which the IC50 on A*0101 was 250 nM.
For the compound CYGLGMEHF [Her2/neu.342.F9], on A*2402, the IC50 is 164 nM.
The compound `CC[C@H](C)[C@H](NC(=O)CNC(=O)[C@H](CC(=O)O)NC(=O)[C@H](Cc1ccc(O)cc1)NC(=O)[C@@H]1CCCN1C(=O)[C@H](CCCCN)NC(=O)[C@H](C)NC(=O)CNC(=O)[C@H](Cc1ccccc1)NC(=O)[C@@H](NC(=O)[C@H](CCSC)NC(=O)[C@H](CC(C)C)NC(=O)[C@H](CCC(=O)O)NC(=O)[C@H](Cc1c[nH]c2ccccc12)NC(=O)[C@@H](N)C(C)C)[C@@H](C)O)C(=O)O` [Her2/neu.912] showed an IC50 at DRB1*0101 (DR1) of 58 nM.
In turn, AYSLTLQGL [Her2/neu.440] showed an IC50 at A*2402 of 92 nM. In other words, the double-digit nanomolar range.
`CC(C)C[C@H](NC(=O)[C@H](C)NC(=O)[C@H](Cc1ccc(O)cc1)NC(=O)[C@H](CC(N)=O)NC(=O)[C@H](CC(=O)O)NC(=O)[C@H](CCC(=O)O)NC(=O)[C@H](Cc1ccccc1)NC(=O)[C@H](CC(C)C)NC(=O)[C@H](CCC(N)=O)NC(=O)[C@@H](N)[C@@H](C)O)C(=O)N[C@@H](C)C(=O)N[C@H](C(=O)N[C@@H](CC(C)C)C(=O)N[C@@H](CC(=O)O)C(=O)N[C@@H](CC(N)=O)C(=O)O)C(C)C` [Her2/neu.105]: the IC50 amounted to 94 nM at DRB1*0101 (DR1) and 1560 nM on DRB1*0701 (DR7).
On DRB1*0101 (DR1), VEPLTPSGAMPNQAQ [Her2/neu.697] gave an IC50 above 6250 nM.
At A*0101, VFETLEEITGY [Her2/neu.399] had an IC50 of 5560 nM.
TYLPTNASF [Her2/neu.63.F9] showed an IC50 at A*2402 of 44 nM.
On DRB1*0101 (DR1), `CC[C@H](C)[C@H](NC(=O)[C@H](CCCCN)NC(=O)[C@H](CCCCN)NC(=O)[C@@H](N)CS)C(=O)N[C@@H](Cc1ccccc1)C(=O)NCC(=O)N[C@@H](CO)C(=O)N[C@@H](CC(C)C)C(=O)N[C@@H](C)C(=O)N[C@@H](Cc1ccccc1)C(=O)N[C@@H](CC(C)C)C(=O)N1CCC[C@H]1C(=O)N[C@@H](CCC(=O)O)C(=O)N[C@@H](CO)C(=O)N[C@@H](Cc1ccccc1)C(=O)O` [Her2/neu.367] came in with an IC50 of 21 nM.
As to `CSCC[C@H](NC(=O)[C@H](CC(C)C)NC(=O)[C@H](CCC(=O)O)NC(=O)[C@H](Cc1c[nH]c2ccccc12)NC(=O)[C@@H](NC(=O)[C@@H](NC(=O)[C@@H](NC(=O)CN)C(C)C)[C@@H](C)O)C(C)C)C(=O)N[C@H](C(=O)N[C@@H](Cc1ccccc1)C(=O)NCC(=O)N[C@@H](C)C(=O)N[C@@H](CCCCN)C(=O)N1CCC[C@H]1C(=O)N[C@@H](Cc1ccc(O)cc1)C(=O)O)[C@@H](C)O` [Her2/neu.909], on DRB1*0701 (DR7), the IC50 came to 1470 nM.
With AYPDSLPDF [Herw/neu414.Y2F9], the IC50 at A*2402 came out at 24 nM.
Consider `CSCC[C@H](NC(=O)[C@H](CC(C)C)NC(=O)[C@H](CCC(N)=O)NC(=O)[C@@H](NC(=O)[C@@H](NC(=O)[C@H](CC(C)C)NC(=O)[C@H](CCC(N)=O)NC(=O)[C@@H](NC(=O)[C@@H](N)[C@@H](C)O)C(C)C)C(C)C)[C@@H](C)O)C(=O)N1CCC[C@H]1C(=O)N[C@@H](Cc1ccc(O)cc1)C(=O)NCC(=O)N[C@@H](CS)C(=O)N[C@@H](CC(C)C)C(=O)N[C@@H](CC(C)C)C(=O)O` [Her2/neu.793], for which the IC50 came to 22 nM on DRB1*0101 (DR1) and 2500 nM at DRB1*0701 (DR7).
Take GTDLFEDNY [Her2/neu.104.D3]: at A*0101, the IC50 worked out at 0.9 nM. This counts as sub-nanomolar.
Take DMKLRLPASPETHLD [Her2/neu.30]: on DRB1*0101 (DR1), the IC50 was determined as 5000 nM. This lies in the single-digit micromolar range.
On to HTDMLRHLY [Her2/neu.42.T2], for which the IC50 at A*0101 was found to be 1.9 nM.
At DRB1*0101 (DR1), LLVVVLGVVFGILIK [Her2/neu.662] had an IC50 above 6250 nM.
On DRB1*0101 (DR1), `CC[C@H](C)[C@H](NC(=O)[C@H](C)NC(=O)[C@@H](NC(=O)[C@@H]1CCCN1C(=O)[C@@H](NC(=O)[C@H](CCCCN)NC(=O)[C@@H](NC(=O)[C@H](CC(N)=O)NC(=O)[C@H](CCC(=O)O)NC(=O)CN)C(C)C)[C@@H](C)CC)C(C)C)C(=O)N[C@@H](CCCCN)C(=O)N[C@H](C(=O)N[C@@H](CC(C)C)C(=O)N[C@@H](CCCNC(=N)N)C(=O)N[C@@H](CCC(=O)O)C(=O)O)C(C)C` [Her2/neu.743] had an IC50 of 79 nM.

(Values after patent publication EP1568373A2, “Inducing cellular immune responses to HER2/neu using peptide and nucleic acid compositions” (priority 1999, dated 2001).)
